Source: US20230139171A1 (SITA Information Networking Computing UK Limited, priority 2019, published 2023)

Tests used:
Assay type in all cases: cell-based
[1] = target: T1, human TLR9 (Homo sapiens, UniProt Q9NR96); assay: TLR9 inhibition reporter assay (HEK-Blue cells, SEAP reporter, ODN2006 stimulation); conditions: HEK-Blue cells overexpressing human TLR9, SEAP reporter, ODN2006 5 nM
T1 construct: host or cells: HEK-Blue cells
T1 sequence (Q9NR96 26-1032): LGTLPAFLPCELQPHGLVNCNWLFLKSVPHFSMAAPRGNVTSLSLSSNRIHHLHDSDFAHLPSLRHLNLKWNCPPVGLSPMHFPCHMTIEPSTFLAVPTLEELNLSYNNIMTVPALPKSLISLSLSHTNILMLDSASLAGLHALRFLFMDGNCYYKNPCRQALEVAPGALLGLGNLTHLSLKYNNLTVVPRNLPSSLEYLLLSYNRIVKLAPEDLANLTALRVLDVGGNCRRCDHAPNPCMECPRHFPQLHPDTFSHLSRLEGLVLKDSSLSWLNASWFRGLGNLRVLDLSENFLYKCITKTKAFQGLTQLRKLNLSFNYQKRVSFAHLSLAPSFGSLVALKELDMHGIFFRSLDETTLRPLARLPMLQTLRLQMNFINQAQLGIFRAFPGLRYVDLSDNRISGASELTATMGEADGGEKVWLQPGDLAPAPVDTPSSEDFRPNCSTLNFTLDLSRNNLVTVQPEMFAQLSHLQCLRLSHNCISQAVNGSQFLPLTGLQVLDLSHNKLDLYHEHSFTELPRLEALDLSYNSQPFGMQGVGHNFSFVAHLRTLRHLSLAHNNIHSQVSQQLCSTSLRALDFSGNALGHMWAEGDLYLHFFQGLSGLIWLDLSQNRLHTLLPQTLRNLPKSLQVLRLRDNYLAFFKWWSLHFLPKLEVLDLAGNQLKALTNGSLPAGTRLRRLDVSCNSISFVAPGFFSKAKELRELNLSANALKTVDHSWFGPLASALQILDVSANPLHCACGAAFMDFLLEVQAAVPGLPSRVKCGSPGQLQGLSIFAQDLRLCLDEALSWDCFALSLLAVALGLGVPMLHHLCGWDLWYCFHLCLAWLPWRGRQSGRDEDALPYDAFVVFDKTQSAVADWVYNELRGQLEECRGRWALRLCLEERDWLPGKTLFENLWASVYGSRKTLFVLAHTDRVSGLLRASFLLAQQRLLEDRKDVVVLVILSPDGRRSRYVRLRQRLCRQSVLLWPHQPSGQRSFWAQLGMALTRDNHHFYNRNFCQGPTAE
Method in brief: (§1)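 Human TLR7/8/9 HEK-Blue reporter lines; dose range 0.05 nM–50 μM; 30 min RT preincubation; stimulus gardiquimod 7.5 μM / R848 15.9 μM / ODN2006 5 nM respectively; 22 h, 37 °C; SEAP detected colorimetrically.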

[2] = target: T2, human TLR8 (Homo sapiens, UniProt Q9NR97); assay: TLR8 inhibition reporter assay (HEK-Blue cells, SEAP reporter, R848 stimulation); conditions: HEK-Blue cells overexpressing human TLR8, SEAP reporter, R848 15.9 μM; read-out: TLR8 IC50
T2 construct: host or cells: HEK-Blue cells
T2 sequence (Q9NR97 27-1041): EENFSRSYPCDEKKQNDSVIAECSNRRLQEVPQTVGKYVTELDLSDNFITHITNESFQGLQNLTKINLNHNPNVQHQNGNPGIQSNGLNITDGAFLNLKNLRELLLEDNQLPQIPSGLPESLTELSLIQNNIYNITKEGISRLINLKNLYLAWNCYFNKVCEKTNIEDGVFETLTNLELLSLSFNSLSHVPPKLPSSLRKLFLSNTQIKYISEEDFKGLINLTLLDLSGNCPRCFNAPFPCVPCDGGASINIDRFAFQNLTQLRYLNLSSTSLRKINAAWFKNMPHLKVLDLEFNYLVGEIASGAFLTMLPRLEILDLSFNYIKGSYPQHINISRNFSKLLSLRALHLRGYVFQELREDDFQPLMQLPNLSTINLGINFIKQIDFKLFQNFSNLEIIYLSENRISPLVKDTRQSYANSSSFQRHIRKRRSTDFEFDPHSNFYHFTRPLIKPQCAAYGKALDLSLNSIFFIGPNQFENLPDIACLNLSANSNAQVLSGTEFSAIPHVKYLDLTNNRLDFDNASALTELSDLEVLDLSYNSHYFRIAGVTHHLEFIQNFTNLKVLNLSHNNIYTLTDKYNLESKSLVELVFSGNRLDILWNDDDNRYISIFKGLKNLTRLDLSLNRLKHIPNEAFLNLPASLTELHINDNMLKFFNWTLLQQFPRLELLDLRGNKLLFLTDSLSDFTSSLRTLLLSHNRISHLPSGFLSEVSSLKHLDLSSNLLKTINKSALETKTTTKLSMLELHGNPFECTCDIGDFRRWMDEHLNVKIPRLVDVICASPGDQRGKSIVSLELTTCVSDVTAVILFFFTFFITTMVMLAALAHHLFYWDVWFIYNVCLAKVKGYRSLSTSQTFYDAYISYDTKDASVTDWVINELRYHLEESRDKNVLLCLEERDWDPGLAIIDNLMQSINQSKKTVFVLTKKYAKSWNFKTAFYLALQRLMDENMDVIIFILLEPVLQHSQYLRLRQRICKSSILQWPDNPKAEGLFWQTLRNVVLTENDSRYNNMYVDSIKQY
Method in brief: as §1

[3] = target: T3, human TLR7 (Homo sapiens, UniProt Q9NYK1); assay: TLR7 inhibition reporter assay (HEK-Blue cells, SEAP reporter, gardiquimod stimulation); conditions: HEK-Blue cells overexpressing human TLR7, SEAP reporter, gardiquimod 7.5 μM; read-out: TLR7 IC50
T3 construct: host or cells: HEK-Blue cells
T3 sequence (Q9NYK1 27-1049): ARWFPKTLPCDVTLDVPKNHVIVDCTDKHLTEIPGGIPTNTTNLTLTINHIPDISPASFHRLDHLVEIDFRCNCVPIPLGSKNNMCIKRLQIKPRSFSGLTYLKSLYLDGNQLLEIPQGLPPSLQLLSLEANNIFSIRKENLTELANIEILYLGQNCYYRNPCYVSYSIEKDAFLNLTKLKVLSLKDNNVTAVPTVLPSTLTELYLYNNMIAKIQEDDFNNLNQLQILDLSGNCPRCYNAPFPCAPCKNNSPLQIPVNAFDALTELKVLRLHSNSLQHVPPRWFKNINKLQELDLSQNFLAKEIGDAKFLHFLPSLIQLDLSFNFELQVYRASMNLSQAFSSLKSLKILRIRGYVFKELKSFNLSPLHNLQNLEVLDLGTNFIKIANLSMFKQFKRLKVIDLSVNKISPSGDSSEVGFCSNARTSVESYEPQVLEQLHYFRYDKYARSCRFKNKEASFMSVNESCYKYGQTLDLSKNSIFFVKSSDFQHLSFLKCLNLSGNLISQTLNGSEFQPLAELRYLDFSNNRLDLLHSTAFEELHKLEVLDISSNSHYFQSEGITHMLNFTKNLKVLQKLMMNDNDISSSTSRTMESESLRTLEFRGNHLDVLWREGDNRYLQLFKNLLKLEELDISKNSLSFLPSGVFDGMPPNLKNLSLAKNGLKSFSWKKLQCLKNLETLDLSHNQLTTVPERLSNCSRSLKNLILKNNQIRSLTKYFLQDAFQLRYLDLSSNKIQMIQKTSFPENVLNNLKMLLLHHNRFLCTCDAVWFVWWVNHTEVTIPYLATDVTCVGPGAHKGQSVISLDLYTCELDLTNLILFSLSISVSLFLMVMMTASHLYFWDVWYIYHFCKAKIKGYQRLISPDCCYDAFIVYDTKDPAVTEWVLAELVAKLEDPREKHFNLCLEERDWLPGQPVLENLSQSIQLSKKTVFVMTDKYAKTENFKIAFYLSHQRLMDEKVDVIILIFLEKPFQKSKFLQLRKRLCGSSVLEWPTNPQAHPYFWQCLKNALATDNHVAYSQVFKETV
Method in brief: as §1

Row | IC50 [1] | IC50 [2] | IC50 [3] | Compound
1 | > 50000 nM | 238 nM | 6.33 nM | COc1cc(-c2[nH]c3sc(C4CCC(N5CCS(=O)(=O)CC5)CC4)nc3c2C(C)C)cn2ncnc12 (single isomer, unassigned) [Example 83, 4-(4-(6-isopropyl-5-(8-methoxy-[1,2,4]triazolo[1,5-a]pyridin-6-yl)-4H-pyrrolo[3,2-d]thiazol-2-yl)cyclohexyl)thiomorpholine 1,1-dioxide]
2 | 6420 nM | 0.7 nM | 1.34 nM | COc1cc(-c2[nH]c3sc(C4CCC(NCC(C)(C)OC)CC4)nc3c2C(C)C)cn2ncnc12 (single isomer, unassigned) [Example 86, 4-(6-isopropyl-5-(8-methoxy-[1,2,4]triazolo[1,5-a]pyridin-6-yl)-4H-pyrrolo[3,2-d]thiazol-2-yl)-N-(2-methoxy-2-methylpropyl)cyclohexan-1-amine]
3 | 11100 nM | 1.13 nM | 0.8 nM | COc1cc(-c2[nH]c3sc(C4CCC(NC[C@@H](F)C(C)(C)O)CC4)nc3c2C(C)C)cn2ncnc12 (single isomer, unassigned) [Example 90]
4 | 6720 nM | 8.12 nM | 4.01 nM | COc1cc(-c2[nH]c3sc(C4CCC(NC[C@@H](F)C(C)(C)O)CC4)nc3c2C(C)C)cn2ncnc12 (single isomer, unassigned) [Example 91]
5 | 12000 nM | 15.6 nM | 1.89 nM | COc1cc(-c2[nH]c3sc(C4CCC(N)CC4)nc3c2C(C)C)cn2ncnc12 (single isomer, unassigned) [Example 93, 4-(6-isopropyl-5-(8-methoxy-[1,2,4]triazolo[1,5-a]pyridin-6-yl)-4H-pyrrolo[3,2-d]thiazol-2-yl)cyclohexan-1-amine]

The remaining lines, values behind:

Row | Compound | IC50 [1] | IC50 [2] | IC50 [3]
6 | COc1cc(-c2[nH]c3sc(C4CCC(NCC(C)(C)O)CC4)nc3c2C(C)C)cn2ncnc12 (single isomer, unassigned) [Example 84, 1-((4-(6-isopropyl-5-(8-methoxy-[1,2,4]triazolo[1,5-a]pyridin-6-yl)-4H-pyrrolo[3,2-d]thiazol-2-yl)cyclohexyl)amino)-2-methylpropan-2-ol] | 9110 nM | 0.84 nM | 0.9 nM
7 | COc1cc(-c2[nH]c3sc(C4CCC(NCC(C)(C)O)CC4)nc3c2C(C)C)cn2ncnc12 (single isomer, unassigned) [Example 85, 1-((4-(6-isopropyl-5-(8-methoxy-[1,2,4]triazolo[1,5-a]pyridin-6-yl)-4H-pyrrolo[3,2-d]thiazol-2-yl)cyclohexyl)amino)-2-methylpropan-2-ol] | 6910 nM | 17.5 nM | 2.66 nM
8 | COc1cc(-c2[nH]c3sc(C4CCC(NCC(C)(C)OC)CC4)nc3c2C(C)C)cn2ncnc12 (single isomer, unassigned) [Example 87, 4-(6-isopropyl-5-(8-methoxy-[1,2,4]triazolo[1,5-a]pyridin-6-yl)-4H-pyrrolo[3,2-d]thiazol-2-yl)-N-(2-methoxy-2-methylpropyl)cyclohexan-1-amine] | 7790 nM | 11.8 nM | 1.73 nM
9 | COc1cc(-c2[nH]c3sc(C4CCC(N(C)C(C)C)CC4)nc3c2C(C)C)cn2ncnc12 (single isomer, unassigned) [Example 88, N-isopropyl-4-(6-isopropyl-5-(8-methoxy-[1,2,4]triazolo[1,5-a]pyridin-6-yl)-4H-pyrrolo[3,2-d]thiazol-2-yl)-N-methylcyclohexan-1-amine] | 4450 nM | 1.84 nM | 0.81 nM
10 | COc1cc(-c2[nH]c3sc(C4CCC(N(C)C(C)C)CC4)nc3c2C(C)C)cn2ncnc12 (single isomer, unassigned) [Example 89, N-isopropyl-4-(6-isopropyl-5-(8-methoxy-[1,2,4]triazolo[1,5-a]pyridin-6-yl)-4H-pyrrolo[3,2-d]thiazol-2-yl)-N-methylcyclohexan-1-amine] | 4100 nM | 18.9 nM | 1.48 nM
11 | COc1cc(-c2[nH]c3sc(C4CCC(N)CC4)nc3c2C(C)C)cn2ncnc12 (single isomer, unassigned) [Example 92, 4-(6-isopropyl-5-(8-methoxy-[1,2,4]triazolo[1,5-a]pyridin-6-yl)-4H-pyrrolo[3,2-d]thiazol-2-yl)cyclohexan-1-amine] | 4110 nM | 2.34 nM | 0.31 nM
12 | CCC1(NC2CCC(c3nc4c(C(C)C)c(-c5cc(OC)c6ncnn6c5)[nH]c4s3)CC2)COC1 (single isomer, unassigned) [Example 94, 3-ethyl-N-(4-(6-isopropyl-5-(8-methoxy-[1,2,4]triazolo[1,5-a]pyridin-6-yl)-4H-pyrrolo[3,2-d]thiazol-2-yl)cyclohexyl)oxetan-3-amine] | 40700 nM | 3.14 nM | 1.94 nM
